Broadly, the AC50 is the concentration at which the activity in the assay is half-maximal.

Calls of active or inactive are those of the source.

Results on six compounds are retold here after ChEMBL document CHEMBL1201862, “PubChem BioAssay data set” (2004).

The target of experiment [1] is T1, Corticotropin-releasing factor receptor 2/Corticotropin-releasing factor-binding protein (Homo sapiens, UniProt P24387+Q13324).
T1 sequence (Q13324 whole entry): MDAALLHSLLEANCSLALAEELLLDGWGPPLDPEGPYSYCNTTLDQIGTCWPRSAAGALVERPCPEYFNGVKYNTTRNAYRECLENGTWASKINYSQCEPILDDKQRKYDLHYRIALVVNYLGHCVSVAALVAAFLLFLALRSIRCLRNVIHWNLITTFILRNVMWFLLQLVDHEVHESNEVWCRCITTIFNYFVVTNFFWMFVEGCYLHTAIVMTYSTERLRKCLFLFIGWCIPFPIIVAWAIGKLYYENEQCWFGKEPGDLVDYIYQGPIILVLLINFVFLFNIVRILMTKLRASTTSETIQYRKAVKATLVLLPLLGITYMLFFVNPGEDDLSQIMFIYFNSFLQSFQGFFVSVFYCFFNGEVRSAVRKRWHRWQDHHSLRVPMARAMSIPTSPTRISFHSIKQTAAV
T1 sequence (P24387 whole entry): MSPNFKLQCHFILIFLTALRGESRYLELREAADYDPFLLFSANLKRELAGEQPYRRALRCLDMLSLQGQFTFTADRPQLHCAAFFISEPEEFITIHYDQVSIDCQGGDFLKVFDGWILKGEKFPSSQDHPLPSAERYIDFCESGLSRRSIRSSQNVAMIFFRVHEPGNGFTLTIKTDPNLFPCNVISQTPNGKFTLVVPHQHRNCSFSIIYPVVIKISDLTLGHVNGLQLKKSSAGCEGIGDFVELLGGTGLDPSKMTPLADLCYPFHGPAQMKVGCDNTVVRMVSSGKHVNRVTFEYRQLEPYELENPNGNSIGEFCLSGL
Put plainly: activators of CRF receptor 2 with binding protein – uHTS hits, confirmation (AID 602473). The conditions noted are these: read-out: EC50_Mean. The class given is functional.

In another experiment the target is T2, Aminopeptidase N (Plasmodium falciparum FcB1/Columbia, UniProt O96935).
T2 sequence (O96935 whole entry): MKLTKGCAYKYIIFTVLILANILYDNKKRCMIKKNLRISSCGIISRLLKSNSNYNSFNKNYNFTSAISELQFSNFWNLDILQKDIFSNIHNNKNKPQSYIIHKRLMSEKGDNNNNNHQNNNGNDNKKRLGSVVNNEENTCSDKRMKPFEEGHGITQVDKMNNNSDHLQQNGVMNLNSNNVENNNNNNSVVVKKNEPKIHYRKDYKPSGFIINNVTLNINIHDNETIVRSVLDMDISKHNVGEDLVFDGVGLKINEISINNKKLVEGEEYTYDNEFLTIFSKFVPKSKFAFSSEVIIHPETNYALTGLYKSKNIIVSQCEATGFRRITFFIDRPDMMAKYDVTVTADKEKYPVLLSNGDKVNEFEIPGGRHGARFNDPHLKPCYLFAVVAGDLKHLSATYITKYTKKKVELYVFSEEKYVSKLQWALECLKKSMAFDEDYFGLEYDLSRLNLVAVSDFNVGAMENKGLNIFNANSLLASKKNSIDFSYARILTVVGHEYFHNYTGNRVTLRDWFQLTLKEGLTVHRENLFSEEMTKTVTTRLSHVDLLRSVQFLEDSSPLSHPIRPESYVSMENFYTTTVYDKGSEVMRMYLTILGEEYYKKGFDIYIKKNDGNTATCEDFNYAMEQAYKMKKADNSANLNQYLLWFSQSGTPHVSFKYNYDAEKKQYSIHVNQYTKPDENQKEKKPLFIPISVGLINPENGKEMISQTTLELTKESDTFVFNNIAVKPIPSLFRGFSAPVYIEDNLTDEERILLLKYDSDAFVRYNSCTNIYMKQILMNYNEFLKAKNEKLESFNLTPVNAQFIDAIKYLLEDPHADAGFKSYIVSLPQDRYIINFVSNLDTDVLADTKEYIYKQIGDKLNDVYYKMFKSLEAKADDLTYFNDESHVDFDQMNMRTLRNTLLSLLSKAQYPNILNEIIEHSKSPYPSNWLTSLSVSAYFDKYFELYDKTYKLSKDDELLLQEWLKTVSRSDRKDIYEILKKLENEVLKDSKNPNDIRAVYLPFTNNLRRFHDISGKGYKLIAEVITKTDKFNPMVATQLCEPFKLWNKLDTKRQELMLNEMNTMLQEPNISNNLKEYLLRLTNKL
Kind of experiment: malaria alanyl aminopeptidase activity blockers – biochemical, fluorogenic H-Leu-NHMec substrate, 1536-well (AID 1445). Set-up: species or system Plasmodium falciparum 3D7, 3D7.

The target of experiment [2] is T1, Corticotropin-releasing factor receptor 2/Corticotropin-releasing factor-binding protein. Put plainly: Dose Response confirmation of uHTS hits for small molecule antagonists of the CRF-binding protein and CRF-R2 receptor complex. The format is functional. The conditions noted are these: read-out: IC50_Mean.
In another experiment the target is Kallikrein-7 (Homo sapiens, UniProt P49862). Kind of experiment: Fluorescence Intensity-based biochemical primary high throughput dose response assay to identify activators of kallikrein-7 (K7) zymogen.
Kallikrein-7, sequence (P49862 whole entry): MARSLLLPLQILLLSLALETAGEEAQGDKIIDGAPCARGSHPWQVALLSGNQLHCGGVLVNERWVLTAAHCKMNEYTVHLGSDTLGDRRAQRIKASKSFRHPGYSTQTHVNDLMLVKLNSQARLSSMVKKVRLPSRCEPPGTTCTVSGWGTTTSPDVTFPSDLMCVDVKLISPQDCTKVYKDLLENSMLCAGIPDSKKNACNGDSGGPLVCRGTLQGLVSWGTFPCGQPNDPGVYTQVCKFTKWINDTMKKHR
A short description of experiment [3]: blockers of bursicon-stimulated LGR2 cAMP reporter – cell-based, HEK293, CRE-luciferase reporter, cherry pick, set 2, dose response (AID 743343).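 Further: transfected cells were stimulated with diluted bursicon conditioned medium after compound addition.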 The format is functional. In general terms: A reporter such as luciferase makes a cellular process visible.
Experiment [4] addresses T3, Microphthalmia-associated transcription factor (Homo sapiens, UniProt O75030).
T3 sequence (O75030 whole entry): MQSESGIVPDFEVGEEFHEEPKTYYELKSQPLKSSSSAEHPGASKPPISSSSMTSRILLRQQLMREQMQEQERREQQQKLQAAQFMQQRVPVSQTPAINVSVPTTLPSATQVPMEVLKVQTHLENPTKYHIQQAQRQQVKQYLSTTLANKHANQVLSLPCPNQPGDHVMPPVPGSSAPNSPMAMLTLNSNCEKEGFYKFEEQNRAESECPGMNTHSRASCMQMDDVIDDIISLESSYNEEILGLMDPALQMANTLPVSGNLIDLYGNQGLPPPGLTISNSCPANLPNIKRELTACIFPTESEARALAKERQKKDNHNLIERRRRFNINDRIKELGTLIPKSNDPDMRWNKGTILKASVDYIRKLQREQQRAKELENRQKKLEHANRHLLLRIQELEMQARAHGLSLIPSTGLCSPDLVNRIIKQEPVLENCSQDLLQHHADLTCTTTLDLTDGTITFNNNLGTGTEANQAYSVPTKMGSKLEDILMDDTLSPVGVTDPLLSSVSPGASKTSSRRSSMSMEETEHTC
Put plainly: reducers of TRPM1 reporter luminescence, concentration series – cell-based, SK-MEL-5, cherry-picked, set 3, MITF inhibitor project, dose response (AID 493073).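 Further: SK-MEL-5 melanoma cells with luciferase driven by the MITF target TRPM1 promoter.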 The class given is functional.

Experiment [5] in a line: toxicity toward HepG2 liver cells – cell-based, plate reader, cherry-pick, antagonist series, cytotoxicity control, dose response (AID 743416). The class given is functional.
Experiment [6] in a line: viability loss in HEK293 cells – cell-based, plate reader, cherry-picked samples, cytotoxicity control, dose response (AID 743446). The class given is functional.
A further experiment has as its target Paired box protein Pax-8 (Homo sapiens, UniProt Q06710). Kind of experiment: PAX8 transcriptional activity inhibition in RMG-I – RMG-I cells, luciferase, cherry-pick, dose response (AID 687027).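 Further: luciferase reporter driven by Pax8 target thyroperoxidase promoter measured by SteadyGlo luminescence.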 The class given is functional, cell-based.
Experiment [7] can be described thus: A549 cell cytotoxicity, dose response, cytotoxicity control, plate reader, cherry-pick, antagonist series (AID 743412). The format is functional, cell-based.
Experiment [8] in a line: blockade of melanocortin 4 receptor signaling – cell-based, plate reader, cherry pick, counter-screen for LGR2 antagonist project, dose response (AID 743444).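 Further: transfected HEK 293 cells stimulated with alpha-MSH peptide; potency of inhibitors of the alpha-MSH evoked signal.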 The class given is functional.
The target in experiment [9] is T4, Polyadenylate-binding protein 1 (Homo sapiens, UniProt P11940). Kind of experiment: MLLE domain peptide-binding blockers, IC50 – biochemical, fluorescence polarization, FITC-PAM2 peptide, dose response (AID 602259). The conditions noted are these: read-out: IC50_Mean. The format is functional. A general note: In fluorescence polarisation assays a small probe gives low polarisation when free and higher when bound to something large.
T4 sequence (P11940 whole entry, the tested form may be a part): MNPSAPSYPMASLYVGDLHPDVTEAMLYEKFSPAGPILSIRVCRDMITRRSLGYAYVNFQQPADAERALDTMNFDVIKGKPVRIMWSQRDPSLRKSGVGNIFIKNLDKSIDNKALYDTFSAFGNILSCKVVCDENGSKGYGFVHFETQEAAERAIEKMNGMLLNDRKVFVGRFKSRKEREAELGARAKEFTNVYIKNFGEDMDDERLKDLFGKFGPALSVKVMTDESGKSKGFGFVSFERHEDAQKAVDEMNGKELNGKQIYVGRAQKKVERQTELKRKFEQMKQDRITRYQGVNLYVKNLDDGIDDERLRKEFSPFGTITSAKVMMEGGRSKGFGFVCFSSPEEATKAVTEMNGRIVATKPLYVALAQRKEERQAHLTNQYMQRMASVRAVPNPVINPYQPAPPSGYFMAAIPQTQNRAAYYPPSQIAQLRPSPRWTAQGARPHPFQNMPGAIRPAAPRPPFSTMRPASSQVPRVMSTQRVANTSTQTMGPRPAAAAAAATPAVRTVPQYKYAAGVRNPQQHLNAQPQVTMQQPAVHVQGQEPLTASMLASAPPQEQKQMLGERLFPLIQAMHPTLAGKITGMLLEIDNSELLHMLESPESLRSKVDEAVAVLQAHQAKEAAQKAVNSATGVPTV

The target of experiment [10] is T4, Polyadenylate-binding protein 1. Kind of experiment: MLLE binding blockers, Cy5 peptide tracer – biochemical, fluorescence polarization, Cy5-PAM2 peptide, secondary, miRNA deadenylation inhibitor project, dose response (AID 602260). The format is functional. The conditions noted are these: read-out: IC50_Mean.

Paired box protein Pax-8, sequence (Q06710 whole entry): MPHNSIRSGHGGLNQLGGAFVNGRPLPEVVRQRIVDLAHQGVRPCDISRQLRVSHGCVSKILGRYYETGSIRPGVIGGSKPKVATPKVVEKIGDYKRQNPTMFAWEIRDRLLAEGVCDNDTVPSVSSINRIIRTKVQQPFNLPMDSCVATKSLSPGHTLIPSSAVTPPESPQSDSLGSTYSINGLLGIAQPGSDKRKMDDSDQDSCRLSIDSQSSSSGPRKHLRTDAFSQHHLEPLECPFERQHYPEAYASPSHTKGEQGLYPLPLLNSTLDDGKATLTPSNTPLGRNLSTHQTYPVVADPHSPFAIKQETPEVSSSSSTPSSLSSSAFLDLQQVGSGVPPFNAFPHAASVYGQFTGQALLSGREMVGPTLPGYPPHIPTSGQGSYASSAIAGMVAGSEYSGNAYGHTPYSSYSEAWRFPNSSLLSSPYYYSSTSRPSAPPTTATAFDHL

As for `CC(=O)c1ccc(-c2cccs2)s1`, the EC50 in experiment [1] was > 53 µM (inactive). Also, the values for the IC50 (on Aminopeptidase N; in experiment [2]) were 40 µM (active) and > 47.1 µM (inactive), respectively.

On to `CCCC(=O)Nc1c(-c2ccc(OC)cc2)c(=O)c2ccccc2n1C`, for which the EC50 at Kallikrein-7 is 49.5 µM (inactive).

Consider `Cn1nnnc1Sc1ncnc2scc(-c3ccsc3)c12`, for which the AC50 was 6.32 µM (active) in experiment [3]; 7.95 µM (active) in experiment [4]; 10.9 µM (active) in experiment [5]; 9.67 µM (active) in experiment [6]; 2.56 µM (active) at Paired box protein Pax-8; 9.63 µM (active) in experiment [7]. Further, the AC50 in experiment [8] was 8.27 µM (active).

Consider `CCOC(=O)C1CCN(c2[nH]cnc3c4c(OC)cccc4nc2-3)CC1`, for which the EC50 at Kallikrein-7 is 8.33 µM (active).

Consider `CC1=C(C#N)C(c2cccnc2)C2=C(O)CC(C)(C)CC2=N1` (stereo unspecified), for which the EC50 on Kallikrein-7 was > 69.5 µM (inactive).

As to `CN1C=CC2=C(C#N)C(N)C(C#N)(C#N)[C@H](c3ccccc3)[C@H]2C1` (stereo partly specified), the IC50 in [9] was 58.9 µM (inactive); in experiment [10], > 66 µM (inactive). At Kallikrein-7, the EC50 was > 69.5 µM (inactive).
